Values joined by “and” are separate entries in the source; they are usually repeats but may differ in a detail not shown here. Equal entries are not always repeated. Inconclusive results and toxic doses are left out.

This experiment concerns P388 leukemia ip, CD2F1 mice, survival T/C. Kind of experiment: NCI In Vivo Anticancer Drug Screen. Data for tumor model P388 Leukemia (intraperitoneal) in CD2F1 (CDF1) mice. The conditions noted are these: endpoint: median survival time, higher = longer survival. In short, it runs like this: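 Mice carrying the transplanted tumor received test compound or vehicle. Survival was recorded in each group, and the value is the treated-group measurement divided by that of the vehicle-treated control group.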

[1] abbreviates: dose: 25.0 mg/kg/injection, schedule: Q01DX005 (ip), vehicle: Klucel (hydroxypropylcellulose) (HPC).
[2] abbreviates: dose: 50.0 mg/kg/injection, schedule: Q01DX005 (ip), vehicle: Klucel (hydroxypropylcellulose) (HPC).
Setting [3] is: dose: 50.0 mg/kg/injection, schedule: Q01DX005 (ip), vehicle: saline with Tween-80.
The mark [4] stands for this setting: dose: 60.0 mg/kg/injection, schedule: Q01DX005 (ip), vehicle: saline with Tween-80.
Setting [5] is: dose: 100.0 mg/kg/injection, schedule: Q01DX005 (ip), vehicle: saline with Tween-80.
The mark [6] stands for this setting: dose: 120.0 mg/kg/injection, schedule: Q01DX005 (ip), vehicle: saline with Tween-80.
Where [7] appears, read: dose: 240.0 mg/kg/injection, schedule: Q01DX005 (ip), vehicle: saline with Tween-80.
Where [8] appears, read: dose: 50.0 mg/kg/injection, schedule: Q01DX009 (ip), vehicle: saline with Tween-80.
Setting [9] is: dose: 100.0 mg/kg/injection, schedule: Q01DX009 (ip), vehicle: saline with Tween-80.
[10] abbreviates: dose: 100.0 mg/kg/injection, schedule: Q04DX003 (ip), vehicle: saline with Tween-80.
[11] abbreviates: dose: 200.0 mg/kg/injection, schedule: Q01DX009 (ip), vehicle: saline with Tween-80.
[12] abbreviates: dose: 200.0 mg/kg/injection, schedule: Q04DX003 (ip), vehicle: saline with Tween-80.
Where [13] appears, read: dose: 12.5 mg/kg/injection, schedule: Q01DX009 (ip), vehicle: saline with Tween-80.
[14] abbreviates: dose: 25.0 mg/kg/injection, schedule: Q01DX009 (ip), vehicle: saline with Tween-80.
The mark [15] stands for this setting: dose: 60.0 mg/kg/injection, schedule: Q01DX005 (ip), vehicle: Klucel (hydroxypropylcellulose) (HPC).

For the molecule `COC1=C(C)C2CC(OC)OC3CC4CCCCC4(C)C(C1=O)C32C` (stereo not given), the T/C is, setting by setting: under setting [1], 105 % of control; under setting [2], 99 % of control; (dose: 100.0 mg/kg/injection, schedule: Q01DX005 (ip), vehicle: Klucel (hydroxypropylcellulose) (HPC)) 92 % of control.

As for `CCOC(=O)CC(C)P(c1ccccc1)C(C)CC(=O)OCC` (stereo not given), the T/C runs as follows: under setting [3], 105 % of control; under setting [4], 98 % of control; under setting [5], 99 % of control; under setting [6], 101 % of control; (dose: 200.0 mg/kg/injection, schedule: Q01DX005 (ip), vehicle: saline with Tween-80) 102 % of control; under setting [7], 105 % of control.

Regarding `COc1ccc(-c2cc(=O)c3c(O)cc(O)cc3o2)cc1`, the T/C under setting [8] was 90 % of control; the T/C under setting [9] was 90 % of control; the T/C under setting [10] was 90 % of control; the T/C under setting [11] is 110 % of control; the T/C under setting [12] was 90 % of control.

On to `Nc1cc(Cl)ccc1C(=O)c1ccccc1Cl`, for which the T/C is, setting by setting: under setting [4], 102 % of control; under setting [6], 100 % of control; under setting [7], 93 % of control.

On to `CC(C)N(C(=O)C1CCN(Cc2c[nH]c3ccccc23)CC1)C(C)C`, for which the T/C was 108 % of control under setting [13], 101 % of control under setting [14], 101 % of control under setting [8] and 115 % of control under setting [9].

As for `Cn1c(N)c2c(=O)n(C)c3c(c2c(C#N)c1=O)CCSc1ccccc1-3`, the T/C was 94 % of control under setting [3] and 93 % of control under setting [5].

Take `COc1cc2ccnc(/C=N\NC(N)=S)c2cc1OC`: the T/C is 98 % of control under setting [14], 101 % of control under setting [8], 107 % of control under setting [9] and 118 % of control under setting [11].

Consider `O=c1[nH]c2ccccc2c(N=Cc2ccccc2)c1-c1ccccc1`, for which the T/C is 96 % of control under setting [15]; 93 % of control (dose: 120.0 mg/kg/injection, schedule: Q01DX005 (ip), vehicle: Klucel (hydroxypropylcellulose) (HPC)); 98 % of control (dose: 240.0 mg/kg/injection, schedule: Q01DX005 (ip), vehicle: Klucel (hydroxypropylcellulose) (HPC)).

As for `COc1cc(C)c(/C(=N/O)n2nnc(-c3ccc(C)cc3)n2)c(C)c1`, the T/C runs as follows: (dose: 100.0 mg/kg/injection, schedule: Q01DX001 (ip), vehicle: saline with Tween-80) 92 % of control; (dose: 200.0 mg/kg/injection, schedule: Q01DX001 (ip), vehicle: saline with Tween-80) 91 % of control.

With `O=C(c1ccccc1)C(O)n1ccnc1` (stereo not given), the T/C reads like this: (dose: 50.0 mg/kg/injection, schedule: Q01DX009 (ip), vehicle: distilled water + alcohol) 102 % of control; (dose: 100.0 mg/kg/injection, schedule: Q01DX009 (ip), vehicle: distilled water + alcohol) 104 % of control; (dose: 200.0 mg/kg/injection, schedule: Q01DX009 (ip), vehicle: distilled water + alcohol) 107 % of control.

Regarding `O=C1c2ccccc2-c2c3c(cc4ccnc1c24)OCO3`, the T/C was 115 % of control (dose: 3.12 mg/kg/injection, schedule: Q01DX009 (ip), vehicle: saline with Tween-80); 101 % of control (dose: 6.25 mg/kg/injection, schedule: Q01DX009 (ip), vehicle: Klucel (hydroxypropylcellulose) (HPC)); 105 % of control (dose: 6.25 mg/kg/injection, schedule: Q01DX009 (ip), vehicle: saline with Tween-80); 97 % of control (dose: 12.5 mg/kg/injection, schedule: Q01DX009 (ip), vehicle: Klucel (hydroxypropylcellulose) (HPC)); 89 % of control under setting [13]; 99 % of control (dose: 25.0 mg/kg/injection, schedule: Q01DX009 (ip), vehicle: Klucel (hydroxypropylcellulose) (HPC)). Further, the T/C (dose: 50.0 mg/kg/injection, schedule: Q01DX009 (ip), vehicle: Klucel (hydroxypropylcellulose) (HPC)) was 100 % of control; the T/C under setting [8] was 99 % of control; the T/C under setting [9] is 99 % of control.

`C1COCCOCCNCCOCCOCCN1`: the T/C is, setting by setting: (dose: 50.0 mg/kg/injection, schedule: Q01DX005 (ip), vehicle: saline) 95 % of control; (dose: 100.0 mg/kg/injection, schedule: Q01DX005 (ip), vehicle: saline) 98 % of control.

Turning to `CSC(=NNC(N)=O)SC`, the T/C is, setting by setting: under setting [10], 100 % of control; under setting [12], 102 % of control; (dose: 400.0 mg/kg/injection, schedule: Q04DX003 (ip), vehicle: saline with Tween-80) 102 % of control.

As for `C(=C\c1cccs1)/c1csnn1`, the T/C under setting [4] is 101 % of control, the T/C under setting [6] was 102 % of control and the T/C under setting [7] was 101 % of control.

As to `CC1=C2C(=O)[C@H]3[C@@H](CC=C4C[C@@H](O)CC[C@@]43C)[C@@H]2CC[C@]12O[C@@H]1C[C@H](C)CN[C@H]1[C@H]2C`, the T/C under setting [14] is 98 % of control, the T/C under setting [8] is 92 % of control and the T/C under setting [9] is 92 % of control.

Turning to `O=C(N=Nc1c(Cl)c(O)c2ccccc2c1O)C(=O)Nc1cccc(C(F)(F)F)c1`, the T/C (dose: 6.25 mg/kg/injection, schedule: Q01DX005 (ip), vehicle: Klucel (hydroxypropylcellulose) (HPC)) is 107 % of control; the T/C (dose: 12.5 mg/kg/injection, schedule: Q01DX005 (ip), vehicle: Klucel (hydroxypropylcellulose) (HPC)) is 107 % of control; the T/C under setting [1] is 107 % of control; the T/C under setting [2] is 98 % of control.

In the case of `COc1cccc2c1C(=O)c1c(O)c3c(c(O)c1C2=O)C[C@@](O)(C(O)CO)C[C@@H]3OC1CC(NC(=O)C(F)(F)F)C(O)C(C)O1` (stereo not given in full), the T/C (dose: 25.0 mg/kg/injection, schedule: Q01DX009 (ip), vehicle: other) was 151 % of control and 152 % of control.

Consider `CN(N=O)C(=O)Nc1c[nH]c(=O)[nH]c1=O`, for which the T/C reads like this: (dose: 25.0 mg/kg/injection, schedule: Q01DX009 (ip), vehicle: saline sonified) 186 % of control; (dose: 25.0 mg/kg/injection, schedule: Q04DX003 (ip), vehicle: saline with Tween-80) 190 % of control; (dose: 50.0 mg/kg/injection, schedule: Q01DX009 (ip), vehicle: saline sonified) 200 % of control; (dose: 50.0 mg/kg/injection, schedule: Q04DX003 (ip), vehicle: saline with Tween-80) 195 % of control; (dose: 66.0 mg/kg/injection, schedule: Q04DX003 (ip), vehicle: saline with Tween-80) 163 % of control; under setting [10], 186 % of control and 190 % of control. For the same molecule, the T/C (dose: 150.0 mg/kg/injection, schedule: Q04DX003 (ip), vehicle: saline with Tween-80) is 90 % of control.

As to `Cc1cccnc1NC1OC(=O)c2ccccc21` (stereo not given), the T/C runs as follows: under setting [8], 100 % of control; under setting [9], 96 % of control.

`CCC(SC)(SC)C(=O)N(C)c1ccccc1`: the T/C is, setting by setting: under setting [14], 100 % of control; under setting [8], 104 % of control; under setting [9], 100 % of control.

For the molecule `O=C(Nc1ncc([N+](=O)[O-])s1)c1cccnc1`, the T/C reads like this: (dose: 3.12 mg/kg/injection, schedule: Q01DX009 (ip), vehicle: suspension in saline) 101 % of control; (dose: 6.25 mg/kg/injection, schedule: Q01DX009 (ip), vehicle: suspension in saline) 87 % of control; (dose: 12.5 mg/kg/injection, schedule: Q01DX009 (ip), vehicle: saline) 91 % of control; (dose: 12.5 mg/kg/injection, schedule: Q01DX009 (ip), vehicle: suspension in saline) 87 % of control; (dose: 50.0 mg/kg/injection, schedule: Q01DX009 (ip), vehicle: saline) 100 % of control; (dose: 200.0 mg/kg/injection, schedule: Q01DX009 (ip), vehicle: saline) 88 % of control.

Consider `NC(=NCc1ccccc1)N/N=C\c1ccnc2ccccc12`, for which the T/C is, setting by setting: (dose: 15.0 mg/kg/injection, schedule: Q01DX005 (ip), vehicle: Klucel (hydroxypropylcellulose) (HPC)) 101 % of control; (dose: 30.0 mg/kg/injection, schedule: Q01DX005 (ip), vehicle: Klucel (hydroxypropylcellulose) (HPC)) 97 % of control; under setting [15], 95 % of control and 97 % of control.

As to `N#CC(Nc1ccccc1)c1ccc(Cl)cc1` (stereo not given), the T/C is, setting by setting: under setting [4], 94 % of control; under setting [6], 94 % of control; under setting [7], 104 % of control.

For `NC(=O)C(N)CCc1ccccc1` (stereo not given), the T/C under setting [4] is 100 % of control, the T/C under setting [6] was 102 % of control and the T/C under setting [7] is 96 % of control.

As for `CC1C2C=CC1C(c1c3ccc(=O)c(O)c-3oc3c(O)c(O)ccc13)C2C(=O)O` (stereo not given), the T/C under setting [4] was 94 % of control, the T/C under setting [6] was 87 % of control and the T/C under setting [7] is 91 % of control.

(Values after PubChem BioAssay AID330 (DTP/NCI, 2004).)
